Experimental findings from ChEMBL document CHEMBL1129856, “Novel optimised quinuclidine squalene synthase inhibitors” (Bioorg Med Chem Lett, 1997) are described below.

pKi: −log10 of the molar value.

By half-life is commonly meant the time in which the quantity being followed falls by half. Low readings indicate rapid decline, high ones slow decline. Usually ED50 stands for the dose that gives a 50% effect, or the effect in half of the subjects. The term pKi denotes the negative decadic logarithm of the Ki, by convention in mol/L. Lower therefore signals a high Ki.

Data set [1] in a line: Plasma half life of hydrolysis of the compound. The conditions noted are these: rat. The data set is classed as ADME, organism-based.
Data set [2] is filed under the species Rattus norvegicus. Nature of the data set: Tested for inhibition of cholesterol biosynthesis in rat. The data set is classed as functional.
In data set [3] the target is T1, Squalene synthase (Rattus norvegicus, UniProt Q02769).
T1 sequence (Q02769 whole entry): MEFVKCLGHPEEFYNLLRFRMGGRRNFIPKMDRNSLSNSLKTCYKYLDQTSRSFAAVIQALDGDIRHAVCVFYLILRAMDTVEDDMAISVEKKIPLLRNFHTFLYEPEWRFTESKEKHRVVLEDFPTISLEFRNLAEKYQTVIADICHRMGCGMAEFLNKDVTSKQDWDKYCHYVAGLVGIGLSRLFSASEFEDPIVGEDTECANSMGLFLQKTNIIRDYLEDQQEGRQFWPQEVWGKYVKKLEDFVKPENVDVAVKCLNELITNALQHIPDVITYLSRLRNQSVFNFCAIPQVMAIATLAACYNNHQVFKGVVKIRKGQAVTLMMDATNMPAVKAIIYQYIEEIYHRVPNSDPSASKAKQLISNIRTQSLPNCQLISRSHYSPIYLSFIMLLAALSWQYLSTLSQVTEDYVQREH
Nature of the data set: Tested for its inhibitory activity against rat microsomal […] squalene synthase (SQS).

For data set [4], the species on record is Rattus norvegicus. Nature of the data set: Tested for inhibition against rat cholesterol biosynthesis. The data set is classed as functional.
The target of data set [5] is T2, Squalene synthase (Homo sapiens, UniProt P37268).
T2 sequence (P37268 whole entry): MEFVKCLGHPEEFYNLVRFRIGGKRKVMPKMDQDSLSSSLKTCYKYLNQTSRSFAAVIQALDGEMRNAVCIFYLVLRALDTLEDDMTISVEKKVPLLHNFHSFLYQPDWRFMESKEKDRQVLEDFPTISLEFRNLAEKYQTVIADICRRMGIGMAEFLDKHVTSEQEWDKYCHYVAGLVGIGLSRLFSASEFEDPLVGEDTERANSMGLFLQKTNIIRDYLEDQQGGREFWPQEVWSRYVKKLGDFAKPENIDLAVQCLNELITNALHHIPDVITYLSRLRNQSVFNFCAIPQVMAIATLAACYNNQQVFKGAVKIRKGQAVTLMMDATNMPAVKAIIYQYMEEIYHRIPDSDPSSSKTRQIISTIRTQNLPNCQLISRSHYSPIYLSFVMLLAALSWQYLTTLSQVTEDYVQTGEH
The experiment in a line: Tested for its inhibitory activity against human microsomal […] squalene synthase (SQS).

On to `C=CCc1cc(CCC(=O)OCc2ccccc2)ccc1C#CC1(O)CN2CCC1CC2` (stereo not drawn), for which the half-life in data set [1] was ≤ 5 min. In the data set listed under Rattus norvegicus [2], this compound returned a median effective dose (ED50) of 1.6 mg/kg.
`C=CCc1cc(CC(=O)OCC)ccc1C#CC1(O)CN2CCC1CC2` (stereo not drawn): the pKi at Squalene synthase [3] is 7.00.
`C=CCc1cc(CCCCCC(=O)OC)ccc1C#CC1(O)CN2CCC1CC2` (stereo not drawn) showed a negative-log Ki (pKi) on Squalene synthase [3] of 7.70. This compound also showed an ED50 in the data set listed under Rattus norvegicus [4] of 1.3 mg/kg.
For `C=CCc1cc(CCC(=O)OCCCCCC)ccc1C#CC1(O)CN2CCC1CC2` (stereo not drawn), the half-life in data set [1] is ≤ 5 min. Also, in the data set filed under Rattus norvegicus [2], the ED50 amounted to 1.5 mg/kg.
Regarding `C=CCc1cc(CCC(N)=O)ccc1C#CC1(O)CN2CCC1CC2` (stereo not drawn), the pKi at Squalene synthase [3] is < 6.60.
Still for that read-out and setting: the same measure for `C=CCc1cc(CCC(=O)N(CC)CC)ccc1C#CC1(O)CN2CCC1CC2` (stereo not drawn): < 6.60.
Take `C=CCc1cc(CCC#N)ccc1C#CC1(O)CN2CCC1CC2` (stereo not drawn): the pKi at Squalene synthase [3] was < 6.60.
As for `C=CCc1cc(CCC(=O)OCC)ccc1C#CC1(O)CN2CCC1CC2` (stereo not drawn), the pKi on Squalene synthase [5] is 7.37; on Squalene synthase [3], 8.22. For the same compound, the half-life in data set [1] was ≤ 5 min. The same compound registered a 50% effective dose (ED50) in the data set listed under Rattus norvegicus [4] of 1.3 mg/kg.
Compound `C=CCc1cc(CCC(=O)OC)ccc1C#CC1(O)CN2CCC1CC2` (stereo not drawn) gave a pKi at Squalene synthase [3] of 7.70. Further, in the data set filed under Rattus norvegicus [4], it took a dose of 1.3 mg/kg to reach the 50% effect level (ED50).
On Squalene synthase [3], `C=CCc1cc(CCCC(=O)OC)ccc1C#CC1(O)CN2CCC1CC2` (stereo not drawn) gave a pKi of 8.70. The compound also had a 50% effective dose (ED50) in the data set filed under Rattus norvegicus [4] of 1.3 mg/kg.
On to `C=CCc1cc(CCC(=O)NC)ccc1C#CC1(O)CN2CCC1CC2` (stereo not drawn), for which, at Squalene synthase [3], the negative logarithm of the Ki (pKi) is < 6.60.
On Squalene synthase [3], `C=CCc1cc(CCCCC(=O)OC)ccc1C#CC1(O)CN2CCC1CC2` (stereo not drawn) gave a negative-log Ki (pKi) of 8.10. In the data set listed under Rattus norvegicus [4], the ED50 came out at 1.3 mg/kg.
On to `C=CCc1cc(CCC(=O)O)ccc1C#CC1(O)CN2CCC1CC2.Cl` (stereo not drawn), for which the ED50 in the data set listed under Rattus norvegicus [2] was 1.8 mg/kg.
`C=CCc1cc(CCC(=O)O)ccc1C#C[C@@]1(O)CN2CCC1CC2.Cl` (single isomer, unassigned) displayed an ED50 in the data set filed under Rattus norvegicus [2] of 0.9 mg/kg.
